Data from patent US6946470B2, “Method of treating psychosis in a patient” (Medical and Pharmaceutical Industry Technology and …, priority 2002, dated 2005).

Key:
[1] = molecular target: T1, serotonin 5-HT2 receptors (Rattus norvegicus, UniProt P14842); assay: Serotonin 5-HT2 receptor binding assay ([3H]Ketanserin); details: 30 nM, rat whole brain membranes
T1 construct: from tissue; host or cells: rat whole brain (except cerebellum) membranes
Procedure: Serotonin 5-HT2 Receptor Binding Assay
This assay measures binding of [^3H]Ketanserin to serotonin 5-HT2 receptors. Whole brain (except cerebellum) membranes of male Wistar derived rats weighing 175±25 g were prepared in Tris-HCl pH 7.7 buffer. A 10 mg aliquot of membrane was incubated with 0.5 nM [^3H]Ketanserin for 40 minutes at 25° C. Non-specific binding was estimated in the presence of 1 μM Ketanserin. Membranes were filtered and washed three times and the filters were counted to determine [^3H]Ketanserin specifically bound. [Reference: Leysen J E, Niemegeers C J, Van Nauten J M, Laduron D M. Mol. Pharmacol. 21: 301-314, 1982]

[2] = molecular target: T2, human dopamine D2L receptors (Homo sapiens, UniProt P14416); assay: Dopamine D2L receptor binding assay ([3H]Spiperone); details: 30 nM, CHO cell membranes
T2 construct: expressed in transfected cells
Procedure: Dopamine D2L Receptor Binding Assay
This assay measures binding of [^3H]Spiperone to human dopamine D2L receptors. CHO cells stably transfected with a plasmid encoding the human dopamine D2L receptor were used to prepare membranes in modified Tris-HCl pH 7.4 buffer. A 20 μg aliquot of membrane, in the presence or absence of a test compound, was incubated with 0.16 nM [^3H]Spiperone for 120 minutes at 25° C. Non-specific binding was estimated in the presence of 10 μM hapoperidol. Membranes were filtered and washed three times and the filters were counted to determine [^3H]Spiperone specifically bound. [References: Grandy D K, Marchionni M A, Makam H, Stofko R E, Alfano M, Frothingham L, Fischer J B, Burker-Howie K J, Bunzow J R, Server A C. Proc. Natl. Acad. Sci. (USA) 86: 9762-9766, 1989; Bunzow J R, Van Tol H H, Grandy D K, Albert P, Salon J, Christie M, Machida C A, Neve K A, Civelli O. Nature 336: 783-787, 1988; Hayes G, Biden T J, Selbie L A, Shine J. Mol. Endocrin. 6: 920-926, 1992]

[3] = test system: apomorphine-induced climbing behavior in mice; assay: Effects on apomorphine-induced climbing behavior; type: in vivo; details: for Inhibition % of apomorphine-induced climbing behavior: apomorphine 1 mg/kg SC 60 min after dosing; for Agonist activity (score): group score 0-6, 30 to 60 minutes post-dosing, 3 mice
Procedure: Climbing behavior was scored 0-2 for each animal from 30 to 60-minutes post-dosing: all four paws on floor=0, both forefeet holding the wall=1, all four paws on wall=2. Consequently, maximum possible group score was 2×3 mice=6. A score of 3 or more (≧3) during this 30 minute observation period denotes dopamine-agonist activity. Mice in which no significant dopamine agonist activity occurred were then used to determine antagonistic activity. […] [Reference: Psychopharmacology 50: 1-6, 1976] Percentage inhibition of test substance on apomorphine-induced climbing behavior is calculated as follows: [formula]

T1 sequence (P14842 whole entry): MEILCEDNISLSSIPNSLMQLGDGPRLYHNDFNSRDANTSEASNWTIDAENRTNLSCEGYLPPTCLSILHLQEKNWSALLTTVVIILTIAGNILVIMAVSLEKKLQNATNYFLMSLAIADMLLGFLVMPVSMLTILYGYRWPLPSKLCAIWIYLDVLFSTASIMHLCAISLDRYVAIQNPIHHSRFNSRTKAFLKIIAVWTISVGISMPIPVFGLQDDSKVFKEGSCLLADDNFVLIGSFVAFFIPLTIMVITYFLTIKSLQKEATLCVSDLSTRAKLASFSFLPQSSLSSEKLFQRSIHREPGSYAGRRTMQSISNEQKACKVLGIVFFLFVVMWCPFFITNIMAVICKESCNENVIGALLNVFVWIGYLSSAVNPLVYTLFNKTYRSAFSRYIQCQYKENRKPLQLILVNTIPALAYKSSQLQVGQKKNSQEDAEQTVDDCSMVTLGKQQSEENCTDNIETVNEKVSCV
T2 sequence (P14416 whole entry): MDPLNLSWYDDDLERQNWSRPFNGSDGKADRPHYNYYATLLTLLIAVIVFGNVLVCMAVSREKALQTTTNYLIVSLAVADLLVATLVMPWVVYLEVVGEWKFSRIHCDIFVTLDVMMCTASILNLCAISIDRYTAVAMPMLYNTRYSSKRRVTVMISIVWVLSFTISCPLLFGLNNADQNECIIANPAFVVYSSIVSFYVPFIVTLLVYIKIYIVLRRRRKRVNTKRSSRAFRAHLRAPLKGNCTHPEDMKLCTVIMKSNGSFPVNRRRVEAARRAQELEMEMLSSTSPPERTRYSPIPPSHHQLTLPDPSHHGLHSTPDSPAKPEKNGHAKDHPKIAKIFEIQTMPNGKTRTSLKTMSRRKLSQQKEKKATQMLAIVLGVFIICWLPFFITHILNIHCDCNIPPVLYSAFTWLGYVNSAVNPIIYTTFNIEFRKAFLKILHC

Structure (SMILES)	Inhibition % 5-HT2 [1]	Inhibition % D2L [2]	inhibition at 0.03 µM [1]	inhibition at 0.03 µM [2]	also measured
COc1ccc(N2CCN(CC3CN4C(=O)Nc5ccccc5C4=N3)CC2)cc1 (stereo not shown) [PDC-132, 2-[1-(4-methoxyphenyl)piperazinyl]methyl-2,3-dihydroimidazo[1,2-c]-quinazolin-5(6H)-one]	5%	15%	–	–	–
O=C1Nc2ccccc2C2=NC(CN3CCN(Cc4ccccc4)CC3)CN12 (stereo not shown) [PDC-121, 2-[4-benzyl-1-piperazinyl]methyl-2,3-dihydroimidazo[1,2-c]quinazolin-5(6H)-one]	–	–	21%	18%	–
O=C1Nc2ccccc2C2=NC(CNC3CCN(Cc4ccccc4)CC3)CN12 (stereo not shown) [PDC-126, 2-[1-benzylpiperidin-4-yl]aminomethyl-2,3-dihydroimidazo[1,2-c]-quinazolin-5(6H)-one]	–	–	11%	29%	–
O=C1Nc2ccccc2C2=NC(CN3CCN(Cc4ccc5c(c4)OCO5)CC3)CN12 (stereo not shown) [PDC-123, 2-[4-piperonyl-1-piperazinyl]methyl-2,3-dihydroimidazo[1,2-c]-quinazolin-5(6H)-one]	–	–	4%	11%	–
O=C1Nc2ccccc2C2=NC(CN3CCC(Cc4ccccc4)CC3)CN12 (stereo not shown) [PDC-124, 2-[4-Benzyl-1-piperidinyl]methyl-2,3-dihydroimidazo[1,2-c]quinazolin-5(6H)-one]	–	–	62%	14%	Inhibition % of apomorphine-induced climbing behavior ([3]; PO 30 mg/kg): 50%; Agonist activity (score) ([3]; PO 30 mg/kg): 0
O=C1Nc2ccccc2C2=NC(CN3CCN(C(c4ccccc4)c4ccc(Cl)cc4)CC3)CN12 (stereo not shown) [PDC-131, 2-[1-(4-chlorobenzhydryl)piperazinyl]methyl-2,3-dihydroimidazo[1,2-c]-quinazolin-5(6H)-one]	47%	10%	–	–	–
O=C(c1ccc(F)cc1)C1CCN(CC2CN3C(=O)Nc4ccccc4C3=N2)CC1 (stereo not shown) [PDC-130, 2-[1-(4-p-fluorobenzoyl)piperidinyl]methyl-2,3-dihydroimidazo[1,2-c]-quinazolin-5(6H)-one]	88%	16%	–	–	Inhibition % of apomorphine-induced climbing behavior ([3]; PO 1 mg/kg): 0%; Agonist activity (score) ([3]; PO 1 mg/kg): 0; Inhibition % of apomorphine-induced climbing behavior ([3]; PO 3 mg/kg): 60%; Agonist activity (score) ([3]; PO 3 mg/kg): 0; Inhibition % of apomorphine-induced climbing behavior ([3]; PO 10 mg/kg): 100%; Agonist activity (score) ([3]; PO 10 mg/kg): 0; Inhibition % of apomorphine-induced climbing behavior ([3]; PO 30 mg/kg): 100%; Agonist activity (score) ([3]; PO 30 mg/kg): 0
O=C1Nc2ccccc2C2=NC(CN3CCN(Cc4ccc(F)cc4)CC3)CN12 (stereo not shown) [PDC-127, 2-[4-(4-fluorobenzyl)-1-piperazinyl]methyl-2,3-dihydroimidazo[1,2-c]quinazolin-5(6H)-one]	–	–	20%	11%	–
O=C1Nc2ccccc2C2=NC(CC3CCC4(CCCCC4)NC3)CN12 (stereo not shown) [PDC-122, 3-{2,3-dihydroimidazo[1,2-c]quinazolin-5(6H)-one-2-yl}methyl-azaspiro-[5,5]undecane]	–	–	2%	13%	–
